Experimental data taken from ChEMBL document CHEMBL1144975, “Improving the selectivity of acyclic nucleoside analogues as inhibitors of human mitochondrial thymidine kinase: replacement of a triphenylmethoxy moiety with substituted amines and carboxamides” (Bioorg Med Chem Lett, 2003).

Target: T1, Thymidine kinase, cytosolic (Homo sapiens, UniProt P04183)
T1 sequence (P04183 whole entry): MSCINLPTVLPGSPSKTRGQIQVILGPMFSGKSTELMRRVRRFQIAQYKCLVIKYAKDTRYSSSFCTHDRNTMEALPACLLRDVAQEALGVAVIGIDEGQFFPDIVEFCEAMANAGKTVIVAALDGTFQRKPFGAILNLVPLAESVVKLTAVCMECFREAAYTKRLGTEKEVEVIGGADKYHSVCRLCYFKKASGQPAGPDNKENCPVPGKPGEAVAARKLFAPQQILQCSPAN
Assay: Inhibitory concentration on phosphorylation of [methyl-3H]-dTh by human Thymidine Kinase 1

Question: Which IC50 does the source give for Cc1cn(C/C=C\CN(Cc2ccccc2)Cc2ccccc2)c(=O)[nH]c1=O here?
Answer: > 500 µM
